The structures appear in SMILES notation.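 Growth conditions: 96-well plates. Treatment: test compound, 48 hours, 5 concentrations. Analysis: linear interpolation between bracketing concentrations; unreached endpoints set to highest concentration. GI50 is the concentration that inhibits growth by half.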 Activity calls are given as the source filed them. No stated cut-off is given here; in the data, active = GI50 up to about 1.1 µM and inactive = higher. Some results are limits rather than exact numbers.

Experimental findings from ChEMBL document CHEMBL1201862, “PubChem BioAssay data set” (2004) are described below.

Among the test systems are A498; CCRF-CEM; HCT-116; HCT-15; HL-60; KM12; LOX IMVI; NCI-H226; SF-268; SF-295; SK-MEL-28; SK-MEL-5; SK-OV-3; SN12C; SR; UO-31; NCI-H522.
What all share (test): NCI anticancer screen, dose series, 48 h

Regarding `c1ccc2c(c1)CCc1c(-c3n[nH]c4c3CCc3ccccc3-4)n[nH]c1-2`, the GI50 is > 100 µM (inactive) in the assay on A498; > 100 µM (inactive) in the assay on CCRF-CEM; > 100 µM (inactive) in the assay with HCT-116; over 100 µM with HCT-15; > 100 µM (inactive) with HL-60; > 100 µM (inactive) in the assay with KM12. Further, the GI50 in the assay on LOX IMVI, in the assay with NCI-H226, in the assay with SF-268, with SF-295, in the assay with SK-MEL-28 and in the assay with SK-MEL-5 was > 100 µM (inactive) in each case. In addition, the GI50 in the assay on SK-OV-3 was > 100 µM (inactive); with SN12C, > 100 µM (inactive); in the assay with SR, 46.9 µM (inactive); with UO-31 it was > 100 µM (inactive).

For `COc1cc(/C=N\c2ccc(C(C)C)cc2)cc(OC)c1OC`, the GI50 in the assay with A498 is > 100 µM (inactive); in the assay with CCRF-CEM, > 66.8 µM (inactive); in the assay with HCT-116, > 100 µM (inactive); in the assay on HCT-15 it was over 55.5 µM; in the assay with HL-60, > 40.9 µM (inactive); with KM12, > 100 µM (inactive). Further, the GI50 in the assay on LOX IMVI was > 54.7 µM (inactive); in the assay with NCI-H226, > 100 µM (inactive); in the assay on NCI-H522 it was > 59.7 µM (inactive); in the assay with SF-268 it was > 100 µM (inactive); with SF-295, > 100 µM (inactive); in the assay on SK-MEL-28, > 100 µM (inactive). The GI50 was > 78 µM (inactive) in the assay on SK-MEL-5; > 100 µM (inactive) in the assay with SK-OV-3; > 100 µM (inactive) with SN12C; 54.3 µM (inactive) in the assay on SR; > 74.1 µM (inactive) in the assay with UO-31.

On to `CCC12C=CCN3CC[C@]4(C(=C(C(=O)OC)[C@@H]1Nc1ccn(C5OC(COC(C)=O)C(OC(C)=O)C5OC(C)=O)c(=O)n1)Nc1ccccc14)C32` (stereo partly drawn), for which the GI50 with A498 was 5.19 µM (inactive); with CCRF-CEM it was 4.59 µM (inactive); in the assay on HCT-116, 4 µM (inactive); in the assay with HCT-15, 3.54 µM; with HL-60 it was 4.51 µM (inactive); with KM12, 1.32 µM (inactive). In addition, the GI50 is 4.26 µM (inactive) with LOX IMVI; 4.47 µM (inactive) in the assay with NCI-H226; 3.84 µM (inactive) in the assay with NCI-H522; 5.55 µM (inactive) in the assay on SF-268; 4.72 µM (inactive) in the assay on SF-295; 4.55 µM (inactive) in the assay on SK-MEL-28. Also, the GI50 in the assay with SK-MEL-5 was 4.5 µM (inactive); with SK-OV-3, 4.93 µM (inactive); in the assay with SN12C, 4.39 µM (inactive); in the assay on SR, 3.94 µM (inactive); with UO-31 it was 4.23 µM (inactive).

`CC(=O)NC(CCCN(Cc1ccccc1)C(=O)NCCCl)C(=O)NCc1ccccc1` (stereo not drawn): the GI50 was > 100 µM (inactive) in the assay with A498; > 100 µM (inactive) in the assay with CCRF-CEM; > 100 µM (inactive) in the assay on HCT-116; over 100 µM in the assay on HCT-15; > 100 µM (inactive) in the assay with HL-60; > 100 µM (inactive) with KM12. Besides, the GI50 with LOX IMVI, in the assay with NCI-H226, in the assay on NCI-H522, in the assay with SF-268, in the assay with SF-295 and in the assay with SK-MEL-28 was > 100 µM (inactive) in each case. Also, the GI50 with SK-MEL-5, with SK-OV-3, with SN12C, with SR and with UO-31 was > 100 µM (inactive) in each case.

For `CCOC(=O)C1=C(C)NC(=O)NC1c1ccc(OC)cc1OC` (stereo not drawn), the GI50 with A498 is > 100 µM (inactive); in the assay with CCRF-CEM, 84.5 µM (inactive); with HCT-116, > 100 µM (inactive); with HCT-15, over 100 µM; with HL-60 it was > 100 µM (inactive); with KM12 it was > 100 µM (inactive). The GI50 with LOX IMVI, in the assay on NCI-H226, with NCI-H522, in the assay on SF-268, in the assay with SF-295 and in the assay with SK-MEL-5 was > 100 µM (inactive) in each case. Moreover, the GI50 in the assay with SK-OV-3, in the assay on SN12C, with SR and in the assay on UO-31 was > 100 µM (inactive) throughout.
